Laboratory results as given in the supplement of paper PMC6045584.
± gives the standard deviation of the averaged measurements.

Key:
[1] = compound: CNCc1ccc(-c2[nH]c3cc(F)cc4c3c2CCNC4=O)cc1; test: surviving fraction relative to DMSO-only wells; higher = less growth inhibition; conditions: exposure time: 5 days
Outline: (§1)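 For each tumour cell line, log-phase cells were put into 384-well plates at 250–500 cells per well, then after 24 hours exposed continuously for five days to inhibitors at 0.5, 1, 5, 10, 50, 100, 500 and 1000 nM. Viability was assessed by CellTiter-Glo luminescence, with surviving fraction expressed relative to the median of DMSO-only wells. Lines were screened three times and retained only if replicate Pearson r exceeded 0.7 and median Z' exceeded 0.3.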

FORETINIB = compound: COc1cc2c(Oc3ccc(NC(=O)C4(C(=O)Nc5ccc(F)cc5)CC4)cc3F)ccnc2cc1OCCCN1CCOCC1 [FORETINIB]; test: as above; conditions: exposure time: 5 days
Outline: as §1

| Test System | surviving fraction ([1]; 0.5 nM) | surviving fraction ([1]; 1 nM) | surviving fraction ([1]; 5 nM) | surviving fraction ([1]; 10 nM) | surviving fraction ([1]; 50 nM) | surviving fraction ([1]; 100 nM) | surviving fraction ([1]; 500 nM) | surviving fraction ([1]; 1000 nM) | surviving fraction (FORETINIB; 0.5 nM) | surviving fraction (FORETINIB; 1 nM) | surviving fraction (FORETINIB; 5 nM) | surviving fraction (FORETINIB; 10 nM) | surviving fraction (FORETINIB; 50 nM) | surviving fraction (FORETINIB; 100 nM) | surviving fraction (FORETINIB; 500 nM) | surviving fraction (FORETINIB; 1000 nM) |
| --- | --- | --- | --- | --- | --- | --- | --- | --- | --- | --- | --- | --- | --- | --- | --- | --- |
| COLO320DM LARGE INTESTINE | 1.04 ± 0.067 | 1.05 ± 0.021 | 1.12 ± 0.027 | 0.962 ± 0.1 | 0.96 ± 0.04 | 0.933 ± 0.12 | 0.933 ± 0.066 | 0.901 ± 0.014 | 1.09 ± 0.087 | 1.13 ± 0.066 | 1.07 ± 0.026 | 1.12 ± 0.076 | 1.05 ± 0.045 | 1.08 ± 0.11 | 0.517 ± 0.023 | 0.429 ± 0.05 |
| DU4475 BREAST | 1.02 ± 0.066 | 0.921 ± 0.1 | 0.969 ± 0.03 | 0.881 ± 0.063 | 0.807 ± 0.12 | 0.696 ± 0.053 | 0.612 ± 0.088 | 0.479 ± 0.074 | 0.942 ± 0.16 | 1.03 ± 0.019 | 0.931 ± 0.066 | 0.971 ± 0.19 | 0.979 ± 0.11 | 0.821 ± 0.13 | 0.715 ± 0.031 | 0.644 ± 0.043 |
| H23 LUNG | 1.05 ± 0.061 | 1.07 ± 0.066 | 1.05 ± 0.025 | 1.1 ± 0.011 | 1.16 ± 0.076 | 1.11 ± 0.043 | 1.14 ± 0.035 | 1.12 ± 0.021 | 1.04 ± 0.058 | 1.07 ± 0.073 | 1.06 ± 0.073 | 0.982 ± 0.035 | 0.976 ± 0.079 | 0.986 ± 0.08 | 0.889 ± 0.024 | 0.388 ± 0.015 |
| HCC78 LUNG | 1 ± 0.17 | 0.867 ± 0.05 | 1.12 ± 0.22 | 1.13 ± 0.2 | 0.828 ± 0.093 | 1.02 ± 0.15 | 0.936 ± 0.091 | 0.911 ± 0.043 | 0.779 ± 0.1 | 0.92 ± 0.14 | 0.89 ± 0.12 | 0.752 ± 0.091 | 0.257 ± 0.06 | 0.259 ± 0.039 | 0.179 ± 0.025 | 0.0403 ± 0.0068 |
| HCC202 BREAST | 0.936 ± 0.073 | 1.2 ± 0.39 | 1.21 ± 0.31 | 1.08 ± 0.087 | 1.14 ± 0.21 | 0.78 ± 0.12 | 0.844 ± 0.033 | 0.867 ± 0.13 | 1.04 ± 0.11 | 1.33 ± 0.14 | 1.24 ± 0.37 | 1.02 ± 0.033 | 1.48 ± 0.2 | 1.34 ± 0.33 | 1.18 ± 0.15 | 0.995 ± 0.23 |
